This note sets out measurements from patent US7141170B2, “Halogenated solvent remediation” (North Wind, Inc., priority 2004, dated 2006).

Each structure is given as a SMILES string.

Data set [1] can be described thus: Surface tension of electron donor solutions (pendant drop). In kind it is physicochemical. The following applies: for change in surface tension: 0% ethyl lactate. The source says: Two fundamental properties used to screen the co-solvent or surfactant properties of a solution are surface tension and interfacial tension. Surface tension measures the force per unit length along the interface between a liquid and air due to its tension. When a co-solvent or surfactant is present in an aqueous liquid at increasing concentrations, the surface tension of that liquid decreases. Interfacial tension is similar to surface tension except that it measures the force per unit length along the interface between two liquid phases arising from the surface free energy. The higher the interfacial tension between two liquids, the less likely one is to dissolve into the other, and the more difficult it is for one to be transported within the other. Thus, perhaps the most significant property of co-solvents and surfactants in the context of chlorinated solvent remediation is that they decrease the interfacial tension between the aqueous phase (groundwater) and the organic nonaqueous phase so that the solubility (or mobility for order-of-magnitude decreases) of the nonaqueous phase is enhanced. The laboratory study performed to confirm the co-solvent properties of the high concentration electron donor solution measured the surface tension of electron donor solutions at various concentrations. Next, interfacial tensions between the same electron donor solutions and nonaqueous phase TCE were measured. Two types of electron donor solutions were used. […] Surface and interfacial tension measurements were made using the pendant drop method (M. J. Rosen, ed., Structure/Performance Relationships in Surfactants, American Chemical Society, Washington […]. Arundel, The Profile Area of Pendant Drops, 82 J. Phys. Chem. 898 (1978)) coupled with real-time video imaging (M. D. Herd et al., Interfacial Tensions of Microbial Surfactants Determined by Real-Time Video Imaging of Pendant Drops, Proceedings paper number SPE/DOE 24206 513-519, SPE/DOE Eighth Symposium on Enhanced Oil Recovery, Tulsa, Okla. (1992)).

The subject of data set [2] is TCE-dechlorinating culture derived from TAN-25 groundwater. Description: Microcosm dechlorination and electron donor utilization study. In kind it is cell-based.
Experimental: Dechlorination studies were carried out to determine if whey powder solutions facilitate complete degradation of target contaminants at reasonable rates. Microcosms were constructed in triplicate sets. These microcosms were amended periodically with whey powder and TCE and analyzed monthly for TCE, its reductive degradation products, electron donor (as both COD and volatile fatty acids (VFAs)), redox, and pH.
An existing laboratory, sodium lactate-fed culture, derived from TAN-25 groundwater undergoing complete anaerobic reductive dechlorination (ARD) of TCE to ethene, was used to inoculate the cultures. Fresh TAN groundwater from the source area was also used to ensure that microbial populations that have been lost as a result of laboratory conditions were present for the evaluation. Serum vials (160 mL) were used as microcosms to grow the cultures. Prior to inoculation, the microcosms, along with all other culture-contact supplies, were autoclaved at 121° C. for 20 minutes and cooled to room temperature. Inoculation of the microcosms was done in a glove box containing nitrogen (95%), carbon dioxide (2.5%), and hydrogen (2.5%). Each microcosm was loaded with the inoculum, which comprised cells from the TCE-dechlorinating culture (1 L), cells from TAN-25 groundwater (1 L), and TAN-37 groundwater (2.5 L) as the media.
The culture cells were used to ensure a robust dechlorinating community was present, and cells were collected from TAN-25 groundwater to ensure the laboratory community was representative of the community at TAN. […] The cell pellets from the dechlorinating culture and TAN-25 groundwater were separated from the supernatant because both contained electron donors, including propionate, acetate, and lactate. TAN-37 groundwater was selected as the medium because it was anaerobic groundwater that contained little or no carbon (40 mg/L as COD with <2.5 ppm acetate and propionate) that might interfere with the evaluation of electron donor utilization. The inoculum mixture was then spiked with TCE (10 ppm), aliquoted (100 mL) into the microcosms, and each respective electron donor was added (˜200 ppm for all electron donors except whey powder [˜400 ppm]). The microcosms were then sealed with butyl-rubber septa and crimped. The headspace of each microcosm was flushed for 10 minutes with 100% nitrogen, and then an initial positive pressure of 5 psig was induced into each one. […] The test microcosms were prepared in triplicate and negative control microcosms were amended with whey powder and LactOil™/propionate. The study included a total of 20 microcosms.
Three months after inoculation, additional electron donor was added to all of the microcosms (200 to 300 mg/L as COD). […] At this point, approximately 50 mL of TAN-37 groundwater was also amended to all of the biotic microcosms to replace the volume lost because of sampling. This was done by placing all of the biotic microcosms into the anaerobic chamber containing nitrogen (95%), carbon dioxide (2.5%), and hydrogen (2.5%); removing the septum; adding TAN-37 groundwater and electron donor; and replacing septum and spiking each microcosm with a TCE stock solution. TCE was amended to all of the microcosms 4 and 6 months after inoculation.
Throughout these studies, the microcosms were monitored monthly for TCE, cis-DCE, trans-DCE, VC, ethene, ethane, methane, lactate, acetate, propionate, butyrate, pH, and Eh. […] Analytical samples (6 mL) were removed using a glass syringe (Hamilton Co., Reno, Nev.) and a 22-gauge sterile needle.
The nature of data set [3]: Field evaluation of enhanced in situ bioremediation at Test Area North (sodium lactate injection). As for the experimental part: A 1-year field evaluation of enhanced in situ bioremediation was performed at Test Area North (“TAN”) of the Idaho National Engineering and Environmental Laboratory. […] The locations of a 5,000 μg/L TCE isopleth (14); 1,000 μg/L TCE isopleth (16); 100 μg/L TCE isopleth (18); and 5 μg/L TCE isopleth (20) are shown by solid lines. FIG. 2 illustrates a cross section of this site, showing the surface of the ground (22), an approximately 63-m (210-feet) fractured basalt unsaturation zone (24) (not drawn to scale), an approximately 60-m (200-feet) fractured basalt aquifer (26), and an impermeable clay interbed (28). […]
The initial electron donor addition strategy involved continuous injection of potable water at 37.85 liters/minute (10 gpm) into Well TSF-05. […] It was determined that the continuous injection of clean water at 37.85 liters/minute (10 gpm) overwhelmed the flux of contaminants from the secondary source. […] This was intended to prevent significant quantities of electron donor from collecting in the injection well and to help prevent biofouling. […]
Eleven monitoring wells (i.e., TAN-D2, TAN-9, TAN-10A, TAN-25, TAN-26, TAN-27, TAN-28, TAN-29, TAN-30A, TAN-31, and TAN-37) were sampled biweekly and analyzed for electron donors, biological activity indicators, competing inorganic electron acceptors and their reduced products, chloroethenes, ethene, pH, temperature, and specific conductivity.

Data set [4] can be described thus: Interfacial tension between electron donor solutions and nonaqueous phase TCE (pendant drop). The following applies: 0% ethyl lactate. In kind it is physicochemical. The source says: Based on the field results presented in Example 1, laboratory studies were preformed to confirm that the enhanced bioavailability of TCE observed in the field was due to co-solvent or surfactant behavior resulting from the use of high concentrations of sodium lactate. Two fundamental properties used to screen the co-solvent or surfactant properties of a solution are surface tension and interfacial tension. Surface tension measures the force per unit length along the interface between a liquid and air due to its tension. When a co-solvent or surfactant is present in an aqueous liquid at increasing concentrations, the surface tension of that liquid decreases. Interfacial tension is similar to surface tension except that it measures the force per unit length along the interface between two liquid phases arising from the surface free energy. The higher the interfacial tension between two liquids, the less likely one is to dissolve into the other, and the more difficult it is for one to be transported within the other. […]
The laboratory study performed to confirm the co-solvent properties of the high concentration electron donor solution measured the surface tension of electron donor solutions at various concentrations. Next, interfacial tensions between the same electron donor solutions and nonaqueous phase TCE were measured. […]

With `CCOC(=O)C(C)O` (stereo not shown) [ethyl lactate], the “effect on the solution's surface tension” value in data set [1] (addition of 1% and 10% ethyl lactate to the different sodium lactate solutions) is “pronounced effect”.
`CC(O)C(=O)[O-].[Na+]` (stereo not shown) [sodium lactate]: the “accumulated cis-DCE, average concentration” value in data set [2] (1 month after inoculation) is recorded as 75 ppb. Further, the “methane accumulated, average” value in data set [2] (between 6 and 7 months) is 21 µM. In addition, the methane concentration generated result in data set [2] (in 3 months) is “approximately 50 μM”. The TCE remaining result in data set [2] (one month after TCE re-addition, only ethene present) is “all of the TCE was gone”; in data set [2] (three months after inoculation, only ethene detected), “all of the TCE was gone”. Besides, in data set [2] (two months after inoculation), the “ethene production as share of amended TCE” value came to 10%. The “change in surface tension” value in data set [1] (sodium lactate concentration increased to 30 and 60%) is “dramatic decrease”; in data set [1] (sodium lactate concentrations from 0.01 to 7%), “almost no change”. Besides, in data set [3] (all wells receiving significant lactate concentrations), the “reductive dechlorination of TCE to ethene” value is on record as “Enhanced reductive dechlorination of TCE to ethene was observed”. Further, in data set [3] (well TAN-26), the “TCE concentrations deep in the aquifer soon after addition began” value is recorded as “dramatic increase”. Moreover, in data set [4] (sodium lactate 30%), the “interfacial tension as % of the value at a sodium lactate concentration of 0.1%” value is 47%. In data set [4] (sodium lactate increased from 0.1 to 3%), the “decrease of interfacial tension” value is “about 26%”.
